Entries after “also recorded” stand apart in the source; their conditions may differ.

Test [1] deals with SKOV3 chemoresistant ovarian cancer cells. Put plainly: Pyridoclax / ABT-737 association, apoptotic cell death. The test is classed as cell-based, human. Conditions: SKOV3, single agent. The protocol: (§1) FIG. 4 represents the effect of the association of Pyridoclax with ABT-737 on chemoresistant ovarian cancer cells IGROV1-R10 (top) and SKOV3 (bottom). Cells were concomitantly (A, E) or sequentially (B) exposed to 25 μM Pyridoclax and 5 μM ABT-737, and cellular effects were assessed either longitudinally (A, B, E) or after 24 h (C, D, F). [A, B, E] real time cellular activity assessed by impedancmetry (xCELLigence technology), after concomitant exposure (A, E) or sequential exposure (B; 24 h Pyridoclax, then ABT-737). [C]: Cellular morphology and DNA content histograms after a 24 h concomitant exposure. [D and F]: PARP and caspase 3 cleavage after a 24 h concomitant exposure.
(§2) Adherent and floating cells were pooled, washed with 1×PBS and centrifuged at 200 g for 5 min before staining by Annexin V, propidium iodide or both, as recommended by the manufacturer (Roche Diagnostic, Indianapolis, USA). Briefly, 100 μl of Annexin V—Flit or propidium iodide or both were added on the cells pellet (10^6 cells) and incubated 15 minutes at room temperature in obscurity. 500 μl of sample buffer was then added on the suspensions that were thereafter analyzed using a Gallios flow cytometer (Beckman Coulter, Roissy, France) and cell cycle distribution was determined using Kaluza acquisition software (Beckman Coulter).
(§3) Cells were rinsed with ice-cold PBS, suspended in a lysis buffer [RIPA:NaCl 150 mM, Tris (pH 8) 50 mM, Triton X100 1%, PMSF 4 mM, EDTA 5 mM, NaF 10 mM, NaPPi 10 mM, Na3OV4 1 mM, aprotinin 0.5 μl/ml and 4.6 ml ultra pure water] and incubated on ice for 30 minutes. Lysates were collected after centrifugation (13200 g, 10 min, 4° C.) and protein concentrations were determined using the Bradford assay (Bio-Rad, Hercules, USA). 20 μg of protein were separated by SDS-PAGE on a 4-12% gradient polyacrylamide gel (Invitrogen, Cergy-Pontoise, France) and transferred to Hybond-PVDF membranes (Amersham, Orsay, France). […]

For a further test, the target named is T1, Mcl-1/Puma interaction (Homo sapiens, UniProt Q07820).
T1 construct: expressed in transfected cells; host or cells: HeLa cells
As to the kind of experiment: BRET assay, Mcl-1/Puma interaction. The test is classed as cell-based. The settings on record: BRET in Hela cells, 10 μM, 16 hours. The protocol: (§4) Hela cells were seeded on 6-well plates and transfected with 200 ng/well of plasmid pRLuc-Bax, pRLuc-Puma or pRLuc-Noxa coding for BRET donors and 1 µg/well of peYFP-Bcl-xL or peYFP-Mcl-1 coding for BRET acceptors (or with pCMV-Bcl-xL or pCMV-Mcl-1 for control). Twenty-four hours after transfection, cells were trypsinized and re-seeded into white 96 well plate flat bottom, incubated for another day, and then treated with drugs for 16 hours at 10 μM. Light emission at 485 nm and 530 nm was measured consecutively using the Mithras fluorescence-luminescence detector LB 940 (Berthold) after adding the luciferase substrate, coelenterazine H (Uptima) at a final concentration of 5 μM. BRET ratios were calculated as described [Terrillon et al. (2003) Mol Endocrinol 17, 677-691, Vo et al. (2012) Eur J Med Chem., 286-93].
(In general: BRET reads energy transfer from a luciferase to a nearby fluorophore.)

A further test has as its target T2, Noxa/Mcl-1 interaction (Homo sapiens, UniProt Q07820).
T2 construct: expressed in transfected cells; host or cells: HeLa cells
As to the kind of experiment: BRET assay, Noxa/Mcl-1 interaction. It counts as cell-based. Conditions: BRET in Hela cells, 10 μM, 16 hours. The procedure: as §4

Test [2] concerns IGROV1-R10 chemoresistant ovarian cancer cells. Put plainly: Pyridoclax / ABT-737 association, apoptotic cell death. It counts as cell-based. Conditions: IGROV1-R10, single agent. The protocol:
as §1, §2, §3

T1 sequence (Q07820 whole entry): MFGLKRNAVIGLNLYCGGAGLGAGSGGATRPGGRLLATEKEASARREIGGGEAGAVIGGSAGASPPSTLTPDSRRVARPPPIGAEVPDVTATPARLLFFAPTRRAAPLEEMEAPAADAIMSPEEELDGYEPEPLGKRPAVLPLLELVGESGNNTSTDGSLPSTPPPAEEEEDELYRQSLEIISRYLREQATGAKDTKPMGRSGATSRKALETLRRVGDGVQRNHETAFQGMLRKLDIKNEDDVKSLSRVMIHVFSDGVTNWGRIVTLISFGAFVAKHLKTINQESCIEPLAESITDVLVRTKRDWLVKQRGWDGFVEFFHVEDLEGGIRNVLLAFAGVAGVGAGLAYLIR
T2 sequence (Q07820 whole entry): as above

Take `CN(C)CC[C@H](CSc1ccccc1)Nc1ccc(S(=O)(=O)NC(=O)c2ccc(N3CCN(Cc4ccccc4-c4ccc(Cl)cc4)CC3)cc2)cc1[N+](=O)[O-]` [ABT-737, 4-[4-[[2-(4-chlorophenyl)phenyl]methyl]piperazin-1-yl]-N-[4-[[(2R)-4-(dimethylamino)-1-phenylsulfanylbutan-2-yl]amino]-3-nitrophenyl]sulfonylbenzamide, reference compound]: the “cell death as single agent” value in test [1] and in test [2] was “neither ABT-737 nor Pyridoclax induced cell death as single agents” each time. Moreover, the “effect on Mcl-1/Puma interaction” value on Mcl-1/Puma interaction was “not able to modify these interactions; also recorded: not able to modify this interaction”. In addition, the “effect on Noxa/Mcl-1 interaction” value at Noxa/Mcl-1 interaction is “not able to modify these interactions”.
